Experimental data taken from US9113629B2, “4-amino-6-(4-substituted-phenyl)-picolinates and 6-amino-2-(4-substituted-phenyl)-pyrimidine-4-carboxylates and their use as herbicides” (DOW AGROSCIENCES LLC, priority 2013, dated 2015).
Like-named read-outs stand apart in the source and are kept apart here.

Columns and labels:
[1] = tested on: Key Broadleaf Weed and Crop Species; test: Post-emergent Test II herbicidal activity (Table 5); type: in vivo; settings: post-emergence, 336 h, 14 days after application; for pest or weed control at 70 g/ha: application rate 70 g ai/ha; for pest or weed control at 140 g/ha: application rate 140 g ai/ha
Outline: (§1)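 Foliar application at 187 L/ha to greenhouse-grown seedlings (first or second true leaf); subirrigation thereafter. Visual 0–100% injury at 14 d relative to untreated plants.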

[2] = tested on: Key Grass and Sedge Weeds as well as Grass Crops; test: Post-emergent Test II herbicidal activity (Table 6); type: in vivo; settings: post-emergence, 336 h; for pest or weed control at 70 g/ha: 70 g ai/ha; for pest or weed control at 140 g/ha: 140 g ai/ha
Outline: as §1

[3] = ABUTH: velvetleaf (Abutilon theophrasti), read-out: Visual Growth Reduction (%) 14 Days After Application, ABUTH
[4] = AMARE: redroot pigweed (Amaranthus retroflexus), read-out: Visual Growth Reduction (%) 14 Days After Application, AMARE
[5] = BRSNN: oilseed-rape, canola (Brassica napus), read-out: Visual Growth Reduction (%) 14 Days After Application, BRSNN
[6] = CHEAL: lambsquarters (Chenopodium album), read-out: Visual Growth Reduction (%) 14 Days After Application, CHEAL
[7] = EPHHL: wild poinsettia (Euphorbia heterophylla), read-out: Visual Growth Reduction (%) 14 Days After Application, EPHHL
[8] = HELAN: sunflower (Helianthus annuus), read-out: Visual Growth Reduction (%) 14 Days After Application, HELAN
[9] = VIOTR: wild pansy (Viola tricolor), read-out: Visual Growth Reduction (%) 14 Days After Application, VIOTR
[10] = CYPES: yellow nutsedge (Cyperus esculentus), read-out: Visual Growth Reduction (%) 14 Days After Application, CYPES
[11] = DIGSA: crabgrass (Digitaria sanguinalis), read-out: Visual Growth Reduction (%) 14 Days After Application, DIGSA
[12] = ECHCG: barnyardgrass (Echinochloa crus-galli), read-out: Visual Growth Reduction (%) 14 Days After Application, ECHCG
[13] = ORYSA: rice (Oryza sativa), crop, read-out: Visual Growth Reduction (%) 14 Days After Application, ORYSA
[14] = SETFA: giant foxtail (Setaria faberi), read-out: Visual Growth Reduction (%) 14 Days After Application, SETFA
[15] = SORVU: grain sorghum (Sorghum vulgare), read-out: Visual Growth Reduction (%) 14 Days After Application, SORVU
[16] = TRZSS (wheat, Triticum aestivum), crop, read-out: Visual Growth Reduction (%) 14 Days After Application, TRZSS
[17] = ZEAMX: maize, corn (Zea mays), crop, read-out: Visual Growth Reduction (%) 14 Days After Application, ZEAMX

SMILES	pest or weed control at 70 g/ha [1, 3] [%]	pest or weed control at 140 g/ha [1, 3] [%]	pest or weed control at 70 g/ha [1, 4] [%]	pest or weed control at 140 g/ha [1, 4] [%]	pest or weed control at 70 g/ha [1, 5] [%]	pest or weed control at 140 g/ha [1, 5] [%]	pest or weed control at 70 g/ha [1, 6] [%]	pest or weed control at 140 g/ha [1, 6] [%]	pest or weed control at 70 g/ha [1, 7] [%]	pest or weed control at 140 g/ha [1, 7] [%]	pest or weed control at 70 g/ha [1, 8] [%]	pest or weed control at 140 g/ha [1, 8] [%]	pest or weed control at 70 g/ha [1, 9] [%]	pest or weed control at 140 g/ha [1, 9] [%]	pest or weed control at 70 g/ha [2, 10] [%]	pest or weed control at 140 g/ha [2, 10] [%]	pest or weed control at 70 g/ha [2, 11] [%]	pest or weed control at 140 g/ha [2, 11] [%]	pest or weed control at 70 g/ha [2, 12] [%]	pest or weed control at 140 g/ha [2, 12] [%]	other results
Nc1c(F)c(-c2ccc(Br)cc2F)nc(C(=O)O)c1Cl [Compound 163]	85 to 94	85 to 94	95 to 100	95 to 100	95 to 100	95 to 100	95 to 100	95 to 100	95 to 100	95 to 100	95 to 100	95 to 100	95 to 100	95 to 100	95 to 100	95 to 100	75 to 84	85 to 94	85 to 94	85 to 94	pest or weed control at 70 g/ha [2, 13]: 0 to 29%; pest or weed control at 140 g/ha [2, 13]: 0 to 29%; pest or weed control at 70 g/ha [2, 14]: 85 to 94%; pest or weed control at 140 g/ha [2, 14]: 95 to 100%; pest or weed control at 70 g/ha [2, 15]: 85 to 94%; pest or weed control at 140 g/ha [2, 15]: 85 to 94%; pest or weed control at 70 g/ha [2, 16]: 60 to 74%; pest or weed control at 140 g/ha [2, 16]: 60 to 74%; pest or weed control at 70 g/ha [2, 17]: 45 to 59%; pest or weed control at 140 g/ha [2, 17]: 60 to 74%; melting point: 162 to 164 °C
Nc1c(F)c(-c2ccc(C(F)(F)F)c(F)c2)nc(C(=O)O)c1Cl [Compound 134]	85 to 94	85 to 94	85 to 94	95 to 100	95 to 100	95 to 100	95 to 100	95 to 100	95 to 100	95 to 100	95 to 100	95 to 100	95 to 100	95 to 100	95 to 100	95 to 100	75 to 84	85 to 94	95 to 100	95 to 100	pest or weed control at 70 g/ha [2, 13]: 45 to 59%; pest or weed control at 140 g/ha [2, 13]: 45 to 59%; pest or weed control at 70 g/ha [2, 14]: 95 to 100%; pest or weed control at 140 g/ha [2, 14]: 95 to 100%; pest or weed control at 70 g/ha [2, 15]: 85 to 94%; pest or weed control at 140 g/ha [2, 15]: 85 to 94%; pest or weed control at 70 g/ha [2, 16]: 60 to 74%; pest or weed control at 140 g/ha [2, 16]: 75 to 84%; pest or weed control at 70 g/ha [2, 17]: 45 to 59%; pest or weed control at 140 g/ha [2, 17]: 60 to 74%; melting point: 124 to 126 °C
